Columns and labels:
[1] = test system: thermostable L-ribose isomerase from Raoultella ornithinolytica; test: Confirmation of enzyme reaction product by HPLC; assay type: biochemical; details: 50 mM substrate, crude enzyme solution, 40° C., 24 hours
Protocol: A crude enzyme solution (0.65 U/ml) was recovered after culturing in a culture medium with 0.1% D-lyxose in 2% TSB, at 37° C. for 2 days and ultrasonication for extraction; 150 μl of the crude enzyme solution reacted with 50 mM of a substrate including individual ketose types such as L-ribose, D-fructose, D-tagatose and L-psicose at 40° C. for 24 hours. After reaction, the enzyme was inactivated under heating in hot water for 2 minutes, and centrifuged at 12,000 rpm for 5 minutes to recover the supernatant. Then, about 2 spoonfuls of a desalted resin (mixed and dried at a ratio of IRA411:SKIB=2:1) in a microspatula were added to the resulting supernatant, for mixing under inversion. After one hour, the solution was filtered through a 0.45-μm filter, for high-performance liquid chromatography (HPLC). As the column, Hitachi HPLC column GL-C611 (manufactured by Hitachi Chemical Industry Co., Ltd.) was used; as the detector, a differential refractive meter (L-7490 refractive index detector manufactured by Hitachi Hightech Co., Ltd.) was used. While the column was retained at 60° C., 10^−4 M sodium hydroxide solution as an eluent was used at a flow rate of 1.0 mL/min. The resulting signals were collected and analyzed with a data analysis software (SmartChrom, manufactured by KYA Technologies Co., Ltd.).

[2] = test system: thermostable L-ribose isomerase derived from Raoultella ornithinolytica; test: L-ribose isomerase activity assay on various aldose substrates (cysteine/carbazole method); assay type: biochemical; details: aldose as substrate; for relative activity to the activity on L-ribose: activity on L-ribose designated as 100%
Protocol: The activity of the L-ribose isomerase of the invention can be assayed as follows. 0.05 ml of 0.05 M glycine-NaOH buffer (pH 9.0), 0.05 ml of 0.05 M L-ribose and the enzyme solution were mixed together to a total volume of 0.5 ml, for the enzyme reaction at 45° C., to generate L-ribulose, which is assayed by the cysteine/carbazole method. One unit of the enzyme activity is designated as the enzyme amount to generate 1 μmol of L-ribulose per one minute.
Using 50 mM L-ribose as a substrate, the enzyme reaction continued at 45° C. for 10 minutes, so that the amount of the generated ketose (L-ribulose) was assayed by the cysteine/carbazole method. As to the temperature stability, the enzyme activity was assayed after 10-min treatment at individual temperatures. As to the optimal pH conditions, the enzyme reaction was performed at 45° C. for 10 minutes in 50 mM acetate buffer (pH 2 to 6), 50 mM sodium phosphate buffer (pH 6 to 8), 50 mM Tris-HCl buffer (pH 8 to 9) or 50 mM glycine-sodium hydroxide buffer (pH 9 to 11), using 50 mM L-ribose as substrate, to assay the amount of a ketose (L-ribulose) generated thereafter by the cysteine/carbazole method (Table 2). The enzyme reaction was done at the composition shown in Table 2 at 45° C. for 10 minutes (Table 3), and the reaction was terminated by adding 50 μl of 10% TCA (trichloroacetic acid). […] After completion of the reaction, absorbance at 540 nm was measured with an ultraviolet/visible spectrophotometer V530 (JASCO Corporation). Additionally, the amount of the enzyme generating 1 μmol L-ribulose per one minute was designated as one unit.
According to the assay method of the activity, the activity of the enzyme was assayed, using various aldose types as substrates. The activities on various aldose types are shown in relative activities to the activity on L-ribose, which is designated as 100%.

| Structure (SMILES) | product generated from the substrate [1] | activity of the enzyme for the substrate (in words) [2] | relative activity to the activity on L-ribose [2] [%] |
| --- | --- | --- | --- |
| O=C[C@@H](O)[C@@H](O)[C@H](O)[C@H](O)CO [D-mannose] |  | exerted activities |  |
| O=C(CO)[C@@H](O)[C@H](O)[C@H](O)CO [D-fructose] | D-mannose is generated |  |  |
| O=C[C@H](O)[C@@H](O)[C@H](O)[C@H](O)CO [D-glucose] |  | never exerts any activities |  |
| O=C[C@@H](O)[C@H](O)[C@H](O)[C@H](O)CO [D-altrose] |  | never exerts any activities |  |
| O=C[C@H](O)[C@H](O)[C@H](O)[C@H](O)CO [D-allose] |  | never exerts any activities |  |
| O=C[C@@H](O)[C@@H](O)[C@H](O)CO [D-lyxose] |  | exerted activities | 15.3 |

Now from value to molecule:

| product generated from the substrate [1] | activity of the enzyme for the substrate (in words) [2] | relative activity to the activity on L-ribose [2] [%] | Structure (SMILES) |
| --- | --- | --- | --- |
| D-tallose is generated |  |  | O=C(CO)[C@@H](O)[C@@H](O)[C@H](O)CO [D-tagatose] |
| L-allose is generated |  |  | O=C(CO)[C@@H](O)[C@@H](O)[C@@H](O)CO [L-psicose] |
|  | exerted activities | 2.2 | O=C[C@@H](O)[C@@H](O)[C@@H](O)[C@@H](O)CO [L-allose] |
|  | exerted activities | 56.9 | O=C[C@@H](O)[C@@H](O)[C@@H](O)[C@H](O)CO [D-tallose] |
| L-ribulose is generated | highest activity | 100 | O=C[C@@H](O)[C@@H](O)[C@@H](O)CO [L-ribose] |

Source: patent US8227232B2, “Thermostable L-ribose isomerase and method for producing same and use of same” (National University Corporation Kagawa Univeristy, priority 2006, dated 2012)
